How the values were obtained:
sebaceous gland (SG) = test: Sebaceous gland (SG) size and cell proliferation in mice injected subcutaneously with caspase-3 inhibitors or activators; type: in vivo; conditions: eight week old mice, subcutaneous injection for 7 days
Description: Immunofluorescence—Skins were embedded in OCT, frozen, sectioned, and fixed in 4% paraformaldehyde. Tail samples were treated with 5 mM EDTA for 4 hours at 37° C. to separate skin epithelium from dermis and fixed in formal saline for 2 hours at room temperature. Dorsal samples were treated with 5 mM EDTA for 6 hours at 37° C. to separate skin epithelium from dermis and fixed in formal saline for 1 hour at room temperature. Samples were blocked for 2 hours in Blocking buffer consisting of 10% Goat serum, 2% BSA, 0.2% Triton-X. Primary antibodies were diluted in blocking buffer and tissue/sections were incubated overnight at 4° C. Whole mounts or sections were washed at least 3 times with PBS. Secondary antibodies were incubated for 1 hour at room temperature followed by 4 washes with PBS. The following primary antibodies were used: YAP (Rabbit, 1:100, Cell Signalling, Mouse 1:100 Santa Cruz), pYAP (Rabbit, 1:100 Cell Signalling), α-E-Catenin (Rabbit, 1:100, Cell Signalling), Ki67 (Rabbit, 1:100, Abcam; Rat, 1:100, eBioscience), CD34 (Rat, 1:100, eBioscience), K15 (Mouse, 1:100, Thermo, Chicken, 1:1000, Abcam), Sox9 (Rabbit, 1:100, Millipore, Goat, 1:50, Santa Cruz). Cleaved-Caspase-3 (Rabbit, 1:100, Cell signalling), Phalloidin (1:250, Life Technologies). TUNEL was performed using ApopTag TdT (Millipore). […] Analysis was performed on Zeiss LSM 880 confocal microscope.

[1] = test system: integrin α6+CD34−EGFPhigh SGPZ cells; test: Proliferation and expansion of isolated SGPZ cells treated with caspase-3 inhibitors; type: cell-based, mice; conditions: z-DEVD-fmk added initially
Description: Flow Cytometry—SGPZ cell isolation and FACS analysis were performed with K15-EGFP mice and CD34, integrin α6 and Sca1 antibodies. K15-GFP^high cells were isolated from ears and dorsal skin of 8-week old B6.Cg-Tg(Krt1-15-EGFP)2Cot/J mice.

[2] = test system: integrin α6+CD34+ HFSCs, HaCaT keratinocytes and Hek293E3 cells; test: Expansion of other cell types treated with caspase-3 inhibitors; type: cell-based; conditions: one treatment
Description: In order to examine whether Caspase-3 affects the expansion of other cell types the present inventors isolated integrin α6^+CD34^+ HFSCs from second telogen mice.

YAP [3] = test: YAP nuclear translocation and pYAP levels in EGFPhigh SGPZ cells; type: cell-based, mice; conditions: immunoblot
Description: (§1) Cell culture—The HaCaT and HEK293 cell lines were cultured in DMEM medium supplemented with 10% FBS, 1% P/S (Pen/Strep) and 1% L-glutamine. Integrin α6^+CD34^+ HFSCs and integrin α6^+CD34^−EGFP^high SGPZ cells were isolated and cultured in HFSC media on sustaining J2 feeder cells. Serum was chelated for a calcium concentration of 50 μM. […] Cells were fixed in 4% PFA for 10 minutes for immunofluorescence analysis or harvested for protein or RNA extraction.
Given that Caspase-3 inhibition hindered cell number and proliferation in vitro the present inventors next examined whether this was mediated via YAP in EGFP^high SGPZ cells using K15^+ SGPZ cells. […] Similar findings as to effect of caspase-3 inhibition on YAP activation and proliferation were also obtained in HaCaT and Hek293E3 cells (FIGS. 3J-K, FIGS. 11B-F).

YAP target genes = test: RT-PCR of YAP dependent target genes in treated HaCaT cells; type: cell-based; conditions: relative to DMSO treated cells
Description: RNA extraction, reverse transcription and real-time PCR (RT-PCR)—RNA was isolated using Trizol (Sigma) and up to 2 μg of RNA were subjected to cDNA synthesis (Applied Biosystems). Real time PCR was carried out using the PerfeCTa SYBR Green FastMix (Quanta), with gene-specific primers [RpLp0 [sequence] […] Amplicon levels were analysed in triplicate and quantitated relative to a standard curve comprising cDNA, and values normalized to levels of the housekeeping gene (Rplp0 or Gapdh). Reactions were: 3 minutes at 95° C., then 40 cycles of 10 seconds at 95° C. and 30 seconds at 60° C. with addition of melt curve step: 10 seconds at 95° C., and increments of 0.5° C. every 5 seconds between 65° C. to 95° C.

YAP [4] = test: YAP localization and pYAP levels in HEK293 cells; type: cell-based
Description: as §1

α-Catenin = α-Catenin levels in low confluent HaCaT cells; type: cell-based
Description: as §1
TUNEL was performed using ApopTag TdT (Millipore). […] Analysis was performed on Zeiss LSM 880 confocal microscope.
The levels of α-Catenin are known to be a critical factor in the regulation of YAP (27). In low confluent cells, diminished levels of α-Catenin serve as a mechanotransduction mechanism that instructs the nuclear translocation of YAP and drives proliferation (27, 33). […] The present inventors therefore examined the levels of α-Catenin both in vitro and in vivo, by employing both Western blot analysis and immunofluorescence.

[5] = test system: excision wounds (1 cm^2) on dorsal skin; test: Wound repair of full thickness excision wounds on dorsal skin; type: in vivo, mice
Text: For all wound repair experiments, mice were sedated with isofluorane. Mice were shaved with electric clippers and treated topically with a hair removal cream for a few minutes (Nair). Full-thickness excision wounds (1 cm^2) were generated on the dorsal skins and monitored for wound coverage. PWI, mice were individually housed. At the desired time PWI, mice were euthanized with CO2 and the wounded skins were harvested and either embedded in OCT or prepared for whole mounts as described above or for protein extraction.
Inhibition of caspase-3 impairs wound repair—Since YAP is known to play a chief role in regeneration (34), the present inventors investigated whether in vivo inhibition of Caspase-3 affects the wound repair dynamic by modulating YAP activity. […] Full thickness excision wounds (1.0 cm^2) were generated on the dorsalbacks and monitored for wound coverage. In control mice, three days post wound infliction (PWI) the wound size was reduced by 60% while in Ivachtin and z-DEVD-fink (SEQ ID NO: 71) treated mice, it was reduced by only 10% and 20%, respectively (FIG. 5A and FIG. 5B).

human melanoma cells = test: GFP-infected human melanoma cells injected into recipient mice; conditions: mouse, in vivo
Description: FIG. 15A—Melanoma cell were injected into recipient mice. […] Representative image 6 days after first treatment. FIG. 15B—quantification of tumor development indicates inhibition of tumor size in response to caspase-3 inhibition. FIG. 15C—Extracted tumors were analyzed for proliferation using the Ki67 marker and the presence of GFP^+ melanoma cells. FIG. 15D—Tumors treated with the caspase-3 activator ABT-199 result in a dramatic increase in tumor mass. […] Scale bars, 20 μm.
Examination of the effect of caspase-3 inhibition on melanoma formation in vivo—For this aim human melanoma cells were stably infected with GFP. Cells were then injected into to recipient mice and the effect of administrating caspase-3 inhibitors was monitored.

501A melanoma cell line = test: Proliferation of melanoma cell line 501A; type: cell-based
Text: (§2) FIGS. 14A-C depict inhibition of Caspase-3 attenuates proliferation of melanoma cells. […] FIG. 14C—Immunofluorescence of decreased Ki67^+ cells (green) after 4 days of Caspase-3 inhibition. Scale bars, 20 μm (FIG. 14C right panels), 100 μm (FIG. 14A, FIG. 14B panels).
(§3) In order to examine this hypothesis, the present inventors first investigated the effect of caspase-3 inhibition on the proliferation rate of melanoma cells. […] Similar results were also obtained when examining 4 additional cell types (HaCaT keratinocytes, Hek293E3, K15 SG progenitors and hair follicle stem cells) (FIGS. 10A-F).

[6] = test system: 624-38 melanoma cell line; test: Proliferation of melanoma cell line 624-38; type: cell-based
Text: as §2, §3

B16F10 melanoma cells = B16F10 melanoma cells in vitro: growth, Ki67, pYAP, α-Catenin; type: cell-based
Text: FIG. 23D—A histogram depicting quantifications of 501-A total cells number after treatment with Z-DEVD-fink (SEQ ID NO: 71). FIG. 23E—Images depicting B16F10 melanoma cells stained for Ki67 (red), active cleaved Caspase-3 (green) and nuclear counterstain DAPI (blue). […] Insets are zoom in on specific cells, Denotation: CP3, Caspase-3. Scale bars: 100 μm. ** (P<0.01), *** (P<0.001).
FIG. 24A—Images depicting B16F10 melanoma cells stained for pYAP (red). […] FIG. 24D—Images depicting B16F10 melanoma cells stained for α-Catenin (green). […] FIG. 24E—Immunoblot analysis of proteins isolated from B16F10 melanoma cells using antibodies against pYAP, α-Catenin and α-Tubulin as control.

Q: Which SG size (sebaceous gland (SG)) does the source give for z-DEVD-fmk here?
A: decrease in SG size

Q: What about the cell number [1] of the same substance?
A: dramatically inhibited

Q: And the “number of formed colonies” value [1]?
A: dramatically inhibited

Q: And the expansion of cells [2]?
A: impaired the expansion

Q: And the “levels of pYAP” value (YAP [3])?
A: increased pYAP levels

Q: What about the “ErbB4 expression, downregulation” value (YAP target genes) of the same substance?
A: 6 fold

Q: And the “HOXA5 expression, decrease” value (YAP target genes)?
A: 2 fold

Q: And the “HOXC13 expression, decrease” value (YAP target genes)?
A: 5 fold

Q: What about the “WTIP expression, downregulation” value (YAP target genes) of the same substance?
A: 2 fold

Q: And the “nuclear YAP localization” value (YAP [4])?
A: Decreased nuclear YAP localization

Q: What about the pYAP levels (YAP [4]; Western blot) of the same substance?
A: increased pYAP levels

Q: And the “levels of α-Catenin” value (α-Catenin)?
A: increased levels

Q: What about the “de novo HF regeneration from the wound bed” value ([5]; 20 and 30 days PWI) of the same substance?
A: inhibited

Q: What about the wound closure ([5]; FIGS. 19A-F) of the same substance?
A: significant decrease

Q: What about the “cells positive for nuclear YAP in the wound border” value ([5]; mouse, in vivo) of the same substance?
A: Decreased nuclear YAP

Q: And the “wound size reduced by” value ([5]; three days post wound infliction, injected from 2 days prior to wounding)?
A: 20%

Q: What about the “effect on tumor development, one inhibitor compared with the other” value (human melanoma cells) of the same substance?
A: stronger effect

Q: And the “cell proliferation and number” value (501A melanoma cell line)?
A: dramatic decrease

Q: What about the “cell proliferation and number” value [6] of the same substance?
A: dramatic decrease

Q: And the “proliferative (Ki67) cells” value (B16F10 melanoma cells)?
A: reduced levels of proliferative cells

Q: What about the “phosphorylated YAP-positive cells (pYAP+)” value (B16F10 melanoma cells; compared to DMSO) of the same substance?
A: significant increases

Q: What about the “growth of B16F10 melanoma cells” value (B16F10 melanoma cells; continuous presence of inhibitor) of the same substance?
A: hindered
